Data on 12 compounds can be found in US12128015B2, “APE/REF1 inhibitors for the treatment of cancer” (Chapman University, priority 2021, dated 2024).

Molecules are shown by their SMILES. “Also recorded” adds a separate entry of the source. Like-named read-outs stand apart in the source and are kept apart here. Some results are limits rather than exact numbers.

One data set has as its system HT1080 cells. Conditions: cited from earlier work.
The test system of data set [1] is human melanoma A375 and SK-Mel-28 cells. Briefly: MTT cytotoxicity in human melanoma A375 and SK-Mel-28 cells (Table 1). In kind it is cell-based. Conditions: for IC50: read-out: IC50 (50% inhibition of cell survival), MTT assay; for anti-melanoma activity (MTT): in words. The source says: (§1) All the cells were passaged once reaching 70-90% confluence.
(§2) (MTT) metabolized by alive cells.
For orientation: Formazan colour is commonly taken as a measure of viable cells.

For data set [2], the system named is Hermes 3A melanoblast cells. Kind of data set: MTT cell viability assay, Hermes 3A melanoblast cells. The format is cell-based, human. As to conditions: 72 h treatment.
From the text: as §2

Data set [3] deals with Hermes 4A melanoblast cells. Briefly: MTT cell viability assay, Hermes 4A melanoblast cells. In kind it is cell-based, human. As to conditions: 72 h treatment.
From the text: as §2

In a further data set the test system is AP-1 transactivation. Briefly: Luciferase assay to determine AP-1 transactivation activities in A375 cells. The format is cell-based, human. Conditions: for inhibition of H2O2-activated AP-1 transactivation: compound 10 μM. The source says: FIG. 3. Inhibition of AP-1 transcriptional activation in human melanoma A375 cells by compound 2. A375 cells were transfected with an AP-1 luciferase reporter plasmid. […] After treatments, the cells were harvested to determine the luciferase activity, expressed as a fold of control without any treatment. The results normalized by cell numbers represent means±S.D of triplicates. *, p<0.05 compared to control; **, p<0.05 compared to H2O2-treatment.
3×AP1pGL3 (3×AP-1 in pGL3-basic; Addgene plasmid #40342), which contains three canonical AP-1 binding sites (TGACTCA) upstream of a minimal promoter fragment containing a TATA box in the luciferase reporter plasmid pGL3-basic. 3×AP1pGL3 was transfected to human melanoma A375 cells using Lipofectamine 2000 following the manufacturer's instructions (Invitrogen). […]
After different treatments, the cells were rinsed twice with phosphate-buffered saline (PBS). Cells were then scraped from the plates in PBS and pelleted for 4 min at 4° C. in a microcentrifuge at 12,000 rpm. Cell pellets were resuspended in 100 μL luciferase lysis buffer for luciferase assay as described (Promega). Luciferase activity measured in relative light units reflects the AP-1 transcription rate and was detected by a SpectraMax M5 UV VIZ Plate Reader. Cell count was conducted for normalization. All the samples were studied in duplicate, and readings were taken in triplicate. Each experiment was repeated at least two times.

Data set [4] concerns A375 metastatic melanoma xenograft. Kind of data set: In vivo xenograft melanoma (A375 cells in nude mice). As for the experimental part: FIG. 4. Compound 2 inhibited the tumor growth of human melanoma in vivo. Metastatic melanoma A375 cells were injected into male nude mice subcutaneously on the flank. Compound 2 was administered i.p. daily at the dose of 5 mg/kg. The growth of the tumor was measured daily, and tumor volume was measured by digital calipers and determined using the formula (mm^3)=[L×(W2)]/2. Tumor growth was presented as a fold of increase in size (mean±SD). *, p<0.05 compared to control (N=7; Compound 2 group, N=5).
The Institutional Animal Care and Use Committee approved all the animal procedures at Chapman University (IACUC #2020-1131). Male nude mice (Nu/Nu) were purchased from Charles River and were housed and maintained in the Chapman University vivarium under pathogen-free conditions. Human A375 metastatic melanoma cells were injected subcutaneously into the mouse's flank (1×10^6 cells per mouse). Three days-post tumor cell injection, mice were randomized into different groups. The treatment group was injected with compound 2 (5 mg/kg/day, i.p.) for 21 days. The growth of the tumors was monitored three times a week and measured using digital Vernier calipers. The size of the tumors was calculated as tumor volume (mm^3)=[L×(W2)]/2. The mice were sacrificed at the end of the experiment.
(§3) Given the limited water solubility, lead compound 2 (in DMSO) was further diluted in normal saline, the drug suspension, and sonicated at room temperature for 15 min. before injection to nude mice. […] The drug suspension was made fresh daily and injected into mice immediately after the compounding.

Data set [5] can be described thus: HPLC analysis of the drug suspension after compounding. In kind it is physicochemical. Conditions: DMSO solution diluted in normal saline, sonicated 15 min at room temperature. As for the experimental part:
as §3

For data set [6], the system named is Hermes 1 melanoblast cells. As to conditions: 72 h.
In the next data set the test system is A375 melanoma cells. Kind of data set: MTT cell viability assay, A375 melanoma cells. The format is cell-based, human. Conditions: for cell viability: 1 μM, A375 cells (FIG. 2C), control = vehicle 0.1% DMSO.
From the text: as §1, §2

A short description of data set [7]: Water solubility: drug precipitation in the media. In kind it is physicochemical.
The next data set concerns Sk-Mel-28 melanoma cells. Conditions: read-out: IC50, cell viability; Sk-Mel-28 cells, MTT, 72 h.
The subject of data set [8] is human breast cancer cells. As to conditions: collective cell migration; chemo-invasion and colony formation with docetaxel; cited from earlier work.
For data set [9] the following is noted: Phase I trial, cited from earlier work.
The next data set relates to melanoma cell lines. Kind of data set: Toxicity of PNRI-299 in the inventors' tested melanoma cell lines. The format is cell-based.
The mark [10] stands for this setting: 72 h, human melanoma A375 and SK-Mel-28 cells (compound 11: average of the two lines).

Method for Sk-Mel-28 melanoma cells: Human malignant melanoma cells (A375, CRL-1619™; Sk-Mel-28, HTB-72™) were purchased from ATCC®. Cells were cultured in Dulbecco's Modified Eagle Medium (DMEM) (ATCC #30-2002) or Eagles' Minimum Essential Medium (EMEM) (ATCC #30-2003) supplemented with 10% fetal bovine serum (FBS) (ATCC #30-2020) at 37° C. in 5% CO2 incubator. All the cells were passaged once reaching 70-90% confluence.

Consider `O=C(O)c1cc2cccc([N+](=O)[O-])c2[nH]1` [CRT0044876], for which the “concentration up to which no toxicity was seen” value in the data set on HT1080 cells (HT1080 cells, CRT0044876 alone) was greater than 400 µM. For the same compound, in the data set on HT1080 cells, the “concentration at which synergistic enhancement of methyl methanesulphonate cytotoxicity was evident” value is 200 µM.

As to `O=C(/C=C/c1ccccc1)NCCCCCCCCCCCCNC(=O)/C=C/c1ccccc1` [Compound 2, (2E,2′E)-N,N′-(Dodecane-1,12-diyl)bis(3-phenylacrylamide)], the “dose dependence of cytotoxicity” value in [1] (MTT, 72 h) is “Cytotoxicity is not dose-”. Further, the cytotoxicity result in [2] was “no significant cytotoxicity”; in data set [3], “no significant cytotoxicity”; in data set [6] (human), “more sensitive to compound 2, but the cytotoxicity was not elevated with increasing the concentrations”. The “H2O2-activated AP-1 activity (luciferase)” value in the data set on AP-1 transactivation (compound 0.5 μM, H2O2 100 μM, 48 h, H2O2 alone 2.3-fold of control) is reported as 95.7 % of control. Moreover, the “inhibition of basal AP-1 dependent transcription” value in the data set on AP-1 transactivation (without H2O2) was “did not display any inhibition”. Moreover, the tumor size in [4] (5 mg/kg i.p. daily, after 21-day treatment, nude mice) is on record as 44.7 % of control. Further, the systemic toxicity result in data set [4] (5 mg/kg i.p. daily, nude mice) is “without producing any apparent systemic toxicities; also recorded: no significant systemic toxicity observed”. Further, the “tumor growth inhibition compared to the control group” value in data set [4] (5 mg/kg i.p., xenograft mouse model) is given as 44.7%. The “chemical stability after compounding” value in data set [5] is “no evidence of chemical structural change after compounding”.

With `O=C(/C=C/c1ccc(O)cc1)NCCCCCCCCCCCCNC(=O)/C=C/c1ccc(O)cc1` [Compound 4], in [1] (setting [10]), the half-inhibitory concentration (IC50) (usually the concentration that inhibits the measured activity by half) was greater than 10000 nM. Also, the “anti-melanoma activity (MTT)” value in data set [1] is “significant loss of anti-tumor activity compared to compound 2”.

Turning to `O=C(/C=C/c1ccc(O)cc1)NCCCCCCNC(=O)/C=C/c1ccc(O)cc1` [Compound 5, (2E,2′E)-N,N′-(Hexane-1,6-diyl)bis(3-(4-hydroxyphenyl)acrylamide)], in data set [1] (Homo sapiens, 72 h), the IC50 is greater than 50000 nM. Moreover, in data set [1], the “anti-melanoma activity (MTT)” value is listed as “loss of anti-melanoma activity compared to compound 2”.

Regarding `O=C(/C=C/c1cccc(O)c1)NCCCCCCCCCCCCNC(=O)/C=C/c1cccc(O)c1` [Compound 7, (2E,2′E)-N,N′-(dodecane-1,12-diyl)bis(3-(3-hydroxyphenyl)acrylamide)], the IC50 in [1] (Homo sapiens, 72 h) is greater than 10000 nM. In addition, the “anti-melanoma activity (MTT)” value in [1] is “significant loss of anti-tumor activity compared to compound 2”.

In the case of `NCCCCCCCCCCCCNC(=O)/C=C/c1cccc(O)c1` [Compound 8, (E)-N-(12-Aminododecyl)-3-(3-hydroxyphenyl) acrylamide], the IC50 in data set [1] (Homo sapiens, 72 h) is greater than 25000 nM.

Regarding `O=C(/C=C/c1ccccc1)NCCCCCCCCCCCCNC(=O)/C=C/c1cccc(O)c1` [Compound 9, (E)-N-(12-Cinnamamidododecyl)-3-(3-hydroxyphenyl) acrylamide], the IC50 in data set [1] (Homo sapiens, 72 h) was greater than 10000 nM. Also, the “anti-melanoma activity (MTT)” value in data set [1] is listed as “poor anti-melanoma activity”.

As for `NCCCCCCCCCCCCNC(=O)C=Cc1ccccc1` [Compound 10, N-(12-Aminododecyl)cinnamamide], the half-maximal inhibitory concentration (IC50) in data set [1] (Homo sapiens, 72 h) was greater than 25000 nM.

`O=C(C=Cc1ccccc1)NCCCCCCCCCCCCNC(=O)/C=C/c1ccc(O)cc1` [Compound 11, (E)-N-(12-Cinnamamidododecyl)-3-(4-hydroxyphenyl) acrylamide]: the cell viability in the data set on A375 melanoma cells was 19 % of control. Further, the IC50 in the data set on A375 melanoma cells (A375 cells, MTT, 72 h) turned out to be 88 nM; in [1] (setting [10]), 79 ± 13 nM; with Sk-Mel-28 melanoma cells, 70 nM; in data set [6] (read-out: IC50, cell viability, Hermes 1 melanoblast cells, MTT) it was 274 nM. Further, in data set [1], the “anti-melanoma activity (MTT)” value was “potent cytotoxic effect”. Further, in the data set on AP-1 transactivation (H2O2 100 μM, 48 h), the “inhibition of H2O2-activated AP-1 transactivation” value is listed as “failed to inhibit”. The “precipitation concentration relative to compound 2” value in data set [7] was “approximately 8 folds”. For the same compound, in [7] (compared to compound 2), the “water solubility and stability” value was “improved water solubility and stability compared to compound 2”. Besides, the “concentration at which drug precipitation was evident” value in [7] (in the media) was -20 µM.

Consider `O=C(/C=C/c1ccccc1)NCCCCCCNC(=O)/C=C/c1ccccc1` [Compound 12, (2E,2′E)-N,N′-(hexane-1,6-diyl)bis(3-phenylacrylamide)], for which the IC50 in data set [1] (Homo sapiens, 72 h) was greater than 10000 nM.

With `CCCCCCCCC/C(=C\C1=C(C)C(=O)C(OC)=C(OC)C1=O)C(=O)O` [Compound E3330], the cell viability in the data set with A375 melanoma cells is listed as 102.6 % of control. The “inhibition of H2O2-activated AP-1 transactivation” value with AP-1 transactivation (H2O2 100 μM, 48 h) was “only reduced the AP-1 activity marginally, which was not statistically significant”. Moreover, the “concentration at which inhibitory activity was evident” value in data set [8] is 50 µM. For the same compound, in data set [9] (cancer patients), the “patients with disease stabilization for ≥4 cycles” value is listed as “six of nineteen”. Further, the “duration of treatment with stable disease, one melanoma patient” value in [9] was 245 days.

As to `N#Cc1cccc(-n2c(=O)n3n(c2=O)C(C(=O)NCc2ccccc2)=CC(=O)C3)c1` [PNRI-299], the “concentration up to which neither toxicity nor synergistic effects were observed” value in the data set on melanoma cell lines was greater than 100 µM.
